Earlier results on two compounds are cited in patent US20210137903A1, “ANTI-ANDROGENS FOR THE TREATMENT OF PROSTRATE CANCER” (priority 2019, published 2021).

Data set [1] addresses AR (Homo sapiens, UniProt P10275). The settings on record: cited from earlier work.
The target in data set [2] is T1, T877A AR mutant (Homo sapiens, UniProt P10275, T878A).
T1 sequence (P10275 1-920 T878A): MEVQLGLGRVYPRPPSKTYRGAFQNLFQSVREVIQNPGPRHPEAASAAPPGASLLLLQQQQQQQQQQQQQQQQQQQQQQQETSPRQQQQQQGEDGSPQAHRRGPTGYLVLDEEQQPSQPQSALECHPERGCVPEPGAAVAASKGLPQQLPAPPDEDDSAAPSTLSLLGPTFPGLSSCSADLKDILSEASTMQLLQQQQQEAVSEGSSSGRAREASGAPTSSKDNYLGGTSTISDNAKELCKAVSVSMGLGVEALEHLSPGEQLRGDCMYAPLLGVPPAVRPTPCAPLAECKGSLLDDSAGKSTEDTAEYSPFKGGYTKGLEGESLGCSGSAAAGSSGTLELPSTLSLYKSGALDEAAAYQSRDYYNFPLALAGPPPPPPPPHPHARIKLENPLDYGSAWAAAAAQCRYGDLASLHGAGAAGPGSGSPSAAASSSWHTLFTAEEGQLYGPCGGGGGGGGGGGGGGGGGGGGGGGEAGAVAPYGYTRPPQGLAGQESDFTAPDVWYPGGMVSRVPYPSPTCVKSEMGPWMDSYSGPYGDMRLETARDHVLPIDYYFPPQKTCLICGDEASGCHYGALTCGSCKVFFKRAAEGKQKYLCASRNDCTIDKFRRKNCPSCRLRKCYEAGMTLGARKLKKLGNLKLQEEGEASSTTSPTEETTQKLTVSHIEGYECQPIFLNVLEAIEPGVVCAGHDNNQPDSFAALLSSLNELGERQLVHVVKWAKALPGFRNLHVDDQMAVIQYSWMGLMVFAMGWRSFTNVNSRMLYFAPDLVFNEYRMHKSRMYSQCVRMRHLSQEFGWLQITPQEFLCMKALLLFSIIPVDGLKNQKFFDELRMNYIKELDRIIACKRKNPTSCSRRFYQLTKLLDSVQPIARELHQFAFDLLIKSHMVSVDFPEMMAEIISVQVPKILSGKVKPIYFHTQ
The settings on record: cited from earlier work.

AR, sequence (P10275 whole entry): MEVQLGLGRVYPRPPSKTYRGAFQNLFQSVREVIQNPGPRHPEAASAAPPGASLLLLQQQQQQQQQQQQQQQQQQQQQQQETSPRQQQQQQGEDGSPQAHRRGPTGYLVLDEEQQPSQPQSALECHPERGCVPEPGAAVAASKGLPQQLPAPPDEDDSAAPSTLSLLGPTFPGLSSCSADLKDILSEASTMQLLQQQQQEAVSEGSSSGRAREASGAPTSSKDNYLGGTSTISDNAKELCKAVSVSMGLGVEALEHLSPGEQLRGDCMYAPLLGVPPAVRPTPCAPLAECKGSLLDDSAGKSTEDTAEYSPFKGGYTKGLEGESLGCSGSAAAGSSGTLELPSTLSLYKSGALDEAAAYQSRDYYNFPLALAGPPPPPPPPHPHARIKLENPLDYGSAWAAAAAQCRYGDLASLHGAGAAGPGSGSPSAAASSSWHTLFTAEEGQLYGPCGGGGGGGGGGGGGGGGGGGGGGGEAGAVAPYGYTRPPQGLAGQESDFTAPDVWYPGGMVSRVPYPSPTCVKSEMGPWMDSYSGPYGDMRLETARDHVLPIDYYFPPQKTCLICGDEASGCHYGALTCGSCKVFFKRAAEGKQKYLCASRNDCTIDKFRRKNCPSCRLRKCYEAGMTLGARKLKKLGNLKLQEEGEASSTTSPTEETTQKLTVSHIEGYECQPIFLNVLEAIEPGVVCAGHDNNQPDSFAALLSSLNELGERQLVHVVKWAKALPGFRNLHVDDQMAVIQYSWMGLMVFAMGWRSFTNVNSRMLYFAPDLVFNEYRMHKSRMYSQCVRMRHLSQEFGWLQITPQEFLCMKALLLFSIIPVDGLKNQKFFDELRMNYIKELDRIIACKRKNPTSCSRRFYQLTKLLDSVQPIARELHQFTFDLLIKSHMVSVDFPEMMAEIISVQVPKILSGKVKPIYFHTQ

On to `CC(O)c1cc(C(=O)N[C@@H](C)Cn2ccc(-c3ccc(C#N)c(Cl)c3)n2)[nH]n1` (some centres unmarked) [Darolutamide], for which, in data set [1], the “affinity of binding to AR” value is given as “high affinity”. Consider `CC(C)(O)C(=O)Nc1ccc([N+](=O)[O-])c(C(F)(F)F)c1` [hydroxyflutamide], for which the AR agonist activity entry in data set [2] is “act as AR agonists”.
